Here are results for twelve compounds from article PMC7722354, “7-Substituted 2-Nitro-5,6-dihydroimidazo[2,1-b][1,3]oxazines: Novel Antitubercular Agents Lead to a New Preclinical Candidate for Visceral Leishmaniasis” (Journal of Medicinal Chemistry, 2017).

Values after ≈ are worked out from the molar mass of the structure shown.

Usually IC50 stands for the midpoint of a concentration-inhibition curve. Higher therefore signals a need for much substance. A word on the MIC: it is the smallest concentration in the dilution series that meets the test's criterion for growth inhibition.

The test system of one experiment is Leishmania donovani. Briefly: L. don amastigote mouse macrophage-based luciferase assay (CDRI). The experiment is classed as cell-based. As to conditions: in mouse macrophages, single test (CDRI).
A further experiment concerns Leishmania infantum. Put plainly: L. inf growth inhibition in mouse macrophages (LMPH). To be noted: Macrophage, mean of at least two determinations. It counts as cell-based.
The test system of a further experiment is Trypanosoma cruzi. Briefly: T. cruzi growth inhibition on MRC-5 cells (LMPH). It counts as cell-based. To be noted: MRC5.
Experiment [1] concerns human lung fibroblasts (MRC-5 cells). Briefly: cytotoxicity toward MRC-5 cells (LMPH). The experiment is classed as cell-based. To be noted: MRC5.
Experiment [2] has as its system M. tb, strain H37Rv. Put plainly: MABA minimum inhibitory concentration assay (aerobic). The experiment is classed as cell-based, Mycobacterium tuberculosis.
In experiment [3] the test system is M. tb, strain H37Rv. Put plainly: LORA minimum inhibitory concentration assay (hypoxic). The experiment is classed as cell-based. As to conditions: Mycobacterium tuberculosis.
[4] abbreviates: Mycobacterium tuberculosis, H37RV, aerobic, read-out: MIC MABA.

For `O=[N+]([O-])c1cn2c(n1)OC(COc1ccc(-c3ccc(F)cn3)cn1)CC2` (stereo not shown) [compound 105], the IC50 is 0.06 µM in the experiment with Leishmania donovani, 50 µM with Leishmania infantum, 0.34 µM in the experiment with Trypanosoma cruzi and more than 64 µM in experiment [1]. The MIC with M. tb, strain H37Rv [2] (setting [4]) turned out to be 0.15 µM (≈ 0.0557 µg/mL); in the experiment with M. tb, strain H37Rv [3], 11 µM (≈ 4.08 µg/mL).
As to `O=[N+]([O-])c1cn2c(n1)OC(COc1cccc(-c3ccc(F)nc3)n1)CC2` (stereo not shown) [compound 117], the IC50 was more than 10 µM in the experiment with Leishmania donovani, 44 µM in the experiment on Leishmania infantum, 0.13 µM in the experiment on Trypanosoma cruzi and 35 µM in experiment [1]. Moreover, the MIC is more than 128 µM with M. tb, strain H37Rv [2] (Mycobacterium tuberculosis, H37RV, read-out: MIC MABA, aerobic) and more than 128 µM with M. tb, strain H37Rv [3].
On to `CC1(CN2CCC(c3ccc(F)cc3)CC2)CCn2cc([N+](=O)[O-])nc2O1` (stereo not shown) [compound 149], for which the IC50 is 1 µM in the experiment with Leishmania donovani, 0.32 µM with Leishmania infantum, 0.87 µM in the experiment with Trypanosoma cruzi and more than 64 µM in experiment [1]. The minimum inhibitory concentration (MIC) with M. tb, strain H37Rv [2] (setting [4]) was 0.22 µM (≈ 0.0824 µg/mL); against M. tb, strain H37Rv [3], 8.3 µM (≈ 3.11 µg/mL).
For the compound `CC1(COc2ccc(-c3ccc(F)cc3F)nc2)CCn2cc([N+](=O)[O-])nc2O1` (stereo not shown) [compound 92], the IC50 with Leishmania donovani is 0.31 µM; in the experiment on Leishmania infantum, 0.17 µM; with Trypanosoma cruzi it was 0.27 µM; in experiment [1], more than 64 µM. Besides, the MIC came to 0.4 µM (≈ 0.161 µg/mL) in the experiment with M. tb, strain H37Rv [2] (setting [4]) and 4.9 µM (≈ 1.97 µg/mL) against M. tb, strain H37Rv [3].
Turning to `O=[N+]([O-])c1cn2c(n1)OC(COc1cccc(-c3ccc(F)nc3F)n1)CC2` (stereo not shown) [compound 119], the IC50 was 0.25 µM with Leishmania donovani, 6.7 µM in the experiment with Leishmania infantum, 0.13 µM in the experiment on Trypanosoma cruzi and more than 64 µM in experiment [1]. Further, the MIC was found to be 4.3 µM (≈ 1.67 µg/mL) in the experiment with M. tb, strain H37Rv [2] (setting [4]) and 10 µM (≈ 3.89 µg/mL) in the experiment with M. tb, strain H37Rv [3].
For `O=[N+]([O-])c1cn2c(n1)OC(COc1ccc(-c3ccc(OC(F)(F)F)cc3)cn1)CC2` (stereo not shown) [compound 64], the IC50 was 0.05 µM in the experiment with Leishmania donovani, 0.35 µM with Leishmania infantum, 0.12 µM with Trypanosoma cruzi and more than 64 µM in experiment [1]. In addition, the MIC in the experiment with M. tb, strain H37Rv [2] (setting [4]) is 0.02 to 0.04 µM (≈ 0.00873 to 0.0175 µg/mL); with M. tb, strain H37Rv [2] (aerobic, read-out: MIC MABA) it was 0.027 µM (≈ 0.0118 µg/mL); against M. tb, strain H37Rv [3], 0.47 µM (≈ 0.205 µg/mL).
For the compound `CC1(CN2CCC(Oc3ccc(F)cc3)CC2)CCn2cc([N+](=O)[O-])nc2O1` (stereo not shown) [compound 154], the IC50 in the experiment with Leishmania donovani is 0.22 µM; in the experiment on Leishmania infantum, 0.32 µM; in the experiment with Trypanosoma cruzi it was 0.59 µM; in experiment [1] it was more than 64 µM. Moreover, the MIC worked out at 0.23 µM (≈ 0.0898 µg/mL) with M. tb, strain H37Rv [2] (setting [4]) and 48 µM (≈ 18.7 µg/mL) against M. tb, strain H37Rv [3].
Take `CC1(COc2ccc(-c3ccc(F)nc3)cc2)CCn2cc([N+](=O)[O-])nc2O1` (stereo not shown) [compound 56]: the IC50 in the experiment with Leishmania donovani was 0.12 µM; in the experiment with Leishmania infantum it was 0.16 µM; in the experiment on Trypanosoma cruzi, 0.3 µM; in experiment [1], more than 64 µM. Moreover, the MIC in the experiment on M. tb, strain H37Rv [2] (setting [4]) turned out to be 0.29 µM (≈ 0.111 µg/mL); against M. tb, strain H37Rv [3], 2.7 µM (≈ 1.04 µg/mL).
As to `O=[N+]([O-])c1cn2c(n1)OC(CN1CCC(c3ccc(F)cc3)CC1)CC2` (stereo not shown) [compound 147], the IC50 in the experiment with Leishmania donovani is 0.88 µM; in the experiment on Leishmania infantum it was 0.87 µM; in the experiment on Trypanosoma cruzi, 2.9 µM; in experiment [1], more than 64 µM. For the same compound, the MIC with M. tb, strain H37Rv [2] (setting [4]) amounted to 2.1 µM (≈ 0.757 µg/mL); in the experiment with M. tb, strain H37Rv [3], 11 µM (≈ 3.96 µg/mL).
As for `O=[N+]([O-])c1cn2c(n1)OC(COc1cnc(-c3ccc(F)cc3)cn1)CC2` (stereo not shown) [compound 126], the IC50 in the experiment with Leishmania donovani is 0.15 µM; with Leishmania infantum, 0.71 µM; in the experiment on Trypanosoma cruzi, 4.7 µM; in experiment [1], more than 64 µM. Moreover, the MIC with M. tb, strain H37Rv [2] (setting [4]) is 0.15 µM (≈ 0.0557 µg/mL); against M. tb, strain H37Rv [3], more than 128 µM.
Regarding `CC1(COc2ccc(-c3ccc(F)cn3)cn2)CCn2cc([N+](=O)[O-])nc2O1` (stereo not shown) [compound 106], the IC50 was 0.15 µM with Leishmania donovani, 0.34 µM with Leishmania infantum, 0.25 µM in the experiment on Trypanosoma cruzi and more than 64 µM in experiment [1]. Also, the MIC was 0.4 µM (≈ 0.154 µg/mL) in the experiment with M. tb, strain H37Rv [2] (setting [4]) and 9.5 µM (≈ 3.66 µg/mL) in the experiment on M. tb, strain H37Rv [3].
On to `CC1(COc2ccc(-c3ccc(OC(F)(F)F)cc3)nc2)CCn2cc([N+](=O)[O-])nc2O1` (stereo not shown) [compound 96], for which the IC50 was 0.65 µM in the experiment on Leishmania donovani, 4 µM with Leishmania infantum, 0.25 µM with Trypanosoma cruzi and more than 64 µM in experiment [1]. Besides, the MIC is 0.05 µM (≈ 0.0225 µg/mL) in the experiment on M. tb, strain H37Rv [2] (setting [4]) and 0.88 µM (≈ 0.396 µg/mL) in the experiment on M. tb, strain H37Rv [3].
